Patent US12133855B2, “Lipid-like nanocomplexes and uses thereof” (Trustees of Tufts College, priority 2018, dated 2024)

What was measured:
HeLa cells = experiment: MTT cytotoxicity of mRNA-loaded nanoparticles; assay type: cell-based; conditions: for cell morphology (bright field images): 24 h of exposure; for cell viability: GFP mRNA loaded, lipidoid/mRNA=10/1, [mRNA]=0.86 μg mL^−1, 24 h
Procedure: All experiments were performed in quadruplicate.
Next, the MTT assay was conducted to examine the cytotoxicity of mRNA-loaded nanoparticles against HeLa cells.

HeLa-DsRed cells = experiment: Cre mRNA delivery (DsRed+ cells); assay type: cell-based; conditions: lipidoid/mRNA=10/1, [mRNA]=0.86 μg mL^−1, 24 h
Procedure: Next, the possibility of using OCholB LNPs to deliver mRNA for genome editing (Cre-loxP and CRISPR/Cas9 systems) purposes was examined. First, Cre mRNA was complexed with OCholB LNPs and tested against HeLa-DsRed cells. The HeLa-DsRed cells express red fluorescent protein, DsRed, only upon Cre protein-mediated recombination. After 24 h of incubation with mRNA/LNPs (lipidoid/mRNA=10/1; [mRNA]=0.86 μg mL^−1), the DsRed^+ cell portions were determined by flow cytometry. […] Then the Cas9 mRNA that expresses a version of Streptococcus pyogenes SF370 Cas9 protein with an N and C terminal nuclear localization signal (NLS) were loaded into LNPs, along with single-guide RNA (sgRNA) that targets a sequence on GFP gene. GFP-HEK cells which steadily express GFP proteins were used a cell model in this case. GFP-cells, indicating a successful Cas9-mediated knockdown of GFP expression, were analyzed using flow cytometry. […] This was also found to be applicable to protein delivery in our previous studies.
In this context, two strategies were tested, i.e., synthesizing new OCholB-tailed lipidoids with single tail rather than full substitution, and adding helper lipids (phospholipids) into fully substituted OCholB LNPs. Single-tailed lipidoids, 75-OCholB-1, 76-OCholB-1 and […] at first following similar protocols as described before and characterized by ESI-MS ([75-OCholB-1+H]^+, 736.55; [76-OCholB-1+H]^+, 734.64; [77-OCholB-1+H]^+, 748.73). Nanoparticles were than fabricated using the same sonication/vortex procedures and the obtained LNPs were measured by DLS (75-OCholB-1, <Dh>=302.6 nm, μ2/I^2=0.30; 76-OCholB-1, <Dh>=294.5 nm, μ2/I^2=0.30; 77-OCholB-1, <Dh>=254.2 nm, μ2/I^2=0.33). […] 69.4%, 72.5% and 68.9% of GFP^+ cells were determined for mRNA/75-OCholB-1, mRNA/76-OCholB-1 and mRNA/77-OCholB-1 treated HeLa cells, respectively. Cre mRNA could also be efficiently delivered into HeLa-DsRed cells, as 87.3% (mRNA/75-OCholB-1), 82.8% (mRNA/76-OCholB-1) and 81.5% (mRNA/77-OCholB-1) of cells were determined to be DsRed^+ after 24 h of exposure (FIG. 14G). […]

[1] = Thiol-triggered size variation of OCholB LNPs (DTT, cysteine; DLS); assay type: physicochemical; conditions: for decrease in size: 20 μM L-cysteine, 6 h of incubation; for increase in averaged hydrodynamic diameter: 24 h; for increase of relative size: first 2 h
From the text: The thiol-trigged degradation and dissociation of the OCholB LNPs were studied by time-dependent DLS measurements and TEM observation. […] The disruption of the vesicle structure is considered to be resulted from the thiol-exchange and disulfide bond cleavage reactions of OCholB lipidoids. We next investigated whether the thiol-containing molecules (e.g. albumin, cysteine, homocysteine, cysteinylglycine, etc.) in the serum may induce the structural disintegration of these disulfide bond-containing LNPs. The stabilities of LNPs in the presence of 20 μM of L-cysteine (Cys), which mimics the free thiols on the small- and macromolecules presented in the serum, were examined. […] While the degrees of size changes vary between lipidoids with different amine head groups, all lipidoids were more responsive to DTT (modeling intracellular conditions) than to Cysteine (modeling conditions in the blood serum).

SMILES | cell morphology (bright field images) (HeLa cells) | cell viability (HeLa cells) [%] | DsRed^+ cells (HeLa-DsRed cells) [%] | decrease in size [1] [%] | increase in size ([1]; 10 mM DTT, 6 h) [%] | increase in averaged hydrodynamic diameter ([1]; 10 mM DTT) [%] | increase of relative size ([1]; 10 mM DTT) [%]
CCN(CC)CCN(CCC(=O)OCCSSCCNC(=O)OC1CCC2(C)C(=CCC3C2CCC2(C)C(C(C)CCCC(C)C)CCC32)C1)CCC(=O)OCCSSCCNC(=O)OC1CCC2(C)C(=CCC3C2CCC2(C)C(C(C)CCCC(C)C)CCC32)C1 (stereo not shown) [Lipidoid 75-OCholB] | no obvious variations | 84.7 | 67.2 | 12.2 | 1315.7 | 2872.4 | 566.4
CC(C)CCCC(C)C1CCC2C3CC=C4CC(OC(=O)NCCSSCCOC(=O)CCN(CCC(=O)OCCSSCCNC(=O)OC5CCC6(C)C(=CCC7C6CCC6(C)C(C(C)CCCC(C)C)CCC76)C5)CCN5CCCC5)CCC4(C)C3CCC12C (stereo not shown) [Lipidoid 76-OCholB] | no obvious variations | 94.5 | 48.7 | 14.6 |  |  | 498.5
CC(C)CCCC(C)C1CCC2C3CC=C4CC(OC(=O)NCCSSCCOC(=O)CCN(CCC(=O)OCCSSCCNC(=O)OC5CCC6(C)C(=CCC7C6CCC6(C)C(C(C)CCCC(C)C)CCC76)C5)CCC5CCCN5C)CCC4(C)C3CCC12C (stereo not shown) [Lipidoid 77-OCholB] | no obvious variations | 100.1 | 72.8 | 7.2 |  |  | 1591.4
CC(C)CCCC(C)C1CCC2C3CC=C4CC(OC(=O)NCCSSCCOC(=O)CCN(CCC(=O)OCCSSCCNC(=O)OC5CCC6(C)C(=CCC7C6CCC6(C)C(C(C)CCCC(C)C)CCC76)C5)CCN(C)C)CCC4(C)C3CCC12C (stereo not shown) [Lipidoid 78-OCholB] |  |  |  |  |  | 4642.8 | 
CC(C)CCCC(C)C1CCC2C3CC=C4CC(OC(=O)NCCSSCCOC(=O)CCN(C)CCN(CCN(C)CCC(=O)OCCSSCCNC(=O)OC5CCC6(C)C(=CCC7C6CCC6(C)C(C(C)CCCC(C)C)CCC76)C5)CCN(C)CCC(=O)OCCSSCCNC(=O)OC5CCC6(C)C(=CCC7C6CCC6(C)C(C(C)CCCC(C)C)CCC76)C5)CCC4(C)C3CCC12C (stereo not shown) [Lipidoid 304-OCholB] |  |  |  |  |  | 3849.6 | 
